Source: patent publication US20210346259A1, “Oral Care Compositions Comprising Dicarboxylic Acid” (The Procter & Gamble Company, priority 2020, published 2021)

How the values were obtained:
[1] = human, 1 %, pH 2.19
Method: The enamel softening method is used to determine the potential of oral care compositions to damage (or not to damage) dental enamel with repeated exposure.
A core of sound human enamel with a diameter of 3-4 mm was extracted from whole human teeth. The cores were mounted in dental acrylic and the surfaces were ground using 600 grit paper. Increasingly fine lapping papers were then used to polish the surface to a 1μ polish. Samples were sonicated in deionized water for 30 min. Enamel specimens were then rinsed with deionized water and wiped to remove any residual polish. Each enamel specimen was inspected and samples with large cracks or uneven calcification were discarded. […]
The artificial saliva solution of TABLE 6 was prepared on the day before the experiment. Also on the day before the experiment, the Vickers hardness of each enamel specimen was measured using a hardness indenter at three separate locations spread across the enamel surface. A 50 g load was applied for 10 seconds, and the diagonal lengths of the resulting indents were measured using a 20× magnification objective. […]
On the day following the cycling experiment, the post-cycling hardness was obtained for each specimen using a similar procedure to that described for the pre-cycling hardness measurements. […] The average change in specimen hardness with respect to treatment and its standard deviation were then determined. […]

[2] = Slurry pH of enamel softening treatments; assay type: physicochemical; settings: treatment as used in enamel softening, Study 1
Excerpt: The pH of the oral care compositions as described herein can be from about 4 to about 7, from about 4 to about 6, from about 4.5 to about 6.5, or from about 4.5 to about 5.5. The pH of a mouthrinse solution can be determined as the pH of the neat solution. The pH of a dentifrice composition can be determined as a slurry pH, which is the pH of a mixture of the dentifrice composition and water, such as a 1:4, 1:3, or 1:2 mixture of the dentifrice composition and water.

[3] = Powder Stain Removal Model (PSRM), tea stain + FeCl3; settings: pH 7
Excerpt: The PSRM is a screening technique where hydroxyapatite powder (HAP) is used as a substrate for stain accumulation (see Baig A A; Kozak K M; Cox E R et al; J Clin Dent 2002, 13:19 24). The purpose of this technique was to illustrate and quantify the stain removal properties of chemical agents used in the oral care compositions disclosed herein with respect to pH. Hydroxyapatite powder provides a large surface area to which tea chromogens adsorbed. In addition to the published PSRM a modification of the model was used where tea stain was used in conjunction with Iron Trichloride (FeCl3) to simulate stains that are more resistant to removal. Stains found in the oral cavity commonly contain Fe(III) (Tantbirojn D, Douglas W H et al Eur J Oral Sci 1998; 106,971-976). […] The magnitude of stain removal was quantified by image analysis. […] VWR BDH9234) was added under stirring. Then HAP-powder was added, powder was centrifuged, washed and dried to yield a deeply colored powder. Treatment solutions were prepared for oxalate and pyrophosphate anions. Oxalate solutions (0.34M, 3%) of different pH (4.5, 5.0, 5.5, 7) were obtained by mixing appropriate ratios of potassium oxalate (62.79 g/L Potassium Oxalate Monohydrate in water, pH-7.0) and oxalic acid solution (30.69 g Oxalic Acid/L in water, pH-1.3). Lower concentrations were obtained by further dilution with water. A pyrophosphate solution, equimolar to a 3% Oxalate solution (75.65 g/L Sodium acid pyrophosphate, pH-adjusted with IN NaOH to pH7) was used as comparison. HAP powders were treated with the treatment solutions to investigate their stain removal potential. […] Supernatant was decanted and the pellet was washed twice by adding 25 mL of water, vortexing, centrifuging at 14,000 rpm for 15 mins, and decanting. The twice washed pellet was resuspended in 30 mL water by vortexing for 1 min, then vacuum-filtered (Millipore MF Membrane Filters 8.0 um, 47 mm) to collect the powder. […] Treatments were done in triplicate. A control disk using tea-stained HAP from the same batch treated with water was prepared as well. The color of the laminated samples was measured using a color-calibrated, white-balanced digital camera and RGB values were acquired. […] The light system was equipped with Dedo lights (model number DLH2) equipped with 150 watt, 24V bulbs model number (Xenophot model number HL X64640), positioned about 30 cm apart (measured from the center of the external circular surface of one of the glass lens through which the light exits to the other) and aimed at a 45 degree angle such that the light paths. […] Stain removal was determined as change in L (brightness) vs. untreated stained HAP, calculated as ΔL=(L for treated HAP-L for the untreated stained HAP). […]

[4] = Powder Stain Removal Model (PSRM), tea stain; settings: pH 7
Method: A tea solution was prepared using 8 regular teabags (Lipton Black Tea) in 400 mL boiling water and steeping for 5 min. After letting the tea cool to 50° C. it was filtered through a Nalgene sterile filter (Thermo Scientific Nalgene Rapid flow 75 mm Filter Unit, 0.2SCFA). 10 g Hydroxyapatite Powder (HAP, Bio-Gel HTP-Gel Catalog #130-0421, Bio-Rad Laboratories Hercules, Calif.) was added and the mixture was stirred for 5 min, distributed into 12 50-mL centrifuge tubes and centrifuged for 15 min at 14,000 rpm (Lynx 6000, Thermo Fischer with Lynx F14-14X50CY rotor). Supernatant was decanted, the remaining stained HAP-powder was washed twice with water by adding 25 ml of water, vortexing, centrifuging at 14,000 rpm for 15 mins, and decanting liquid. Centrifuge tubes were placed in a convection oven overnight at 60° C. to dry stained HAP. Once dried, stained HAP was pooled and ground to a fine powder with pestle and mortar and stored in a dry dark place at room temperature.
HAP powders were treated with the treatment solutions to investigate their stain removal potential. Treatment (20 mL of a 1:4 dilution of treatment solutions above) was added to stained HAP powder (200 mg) in a 50 mL centrifuge, vortexed for 1 min, then centrifuged at 14,000 rpm for 15 min. Supernatant was decanted and the pellet was washed twice by adding 25 mL of water, vortexing, centrifuging at 14,000 rpm for 15 mins, and decanting. […]

[5] = 0.250 % Active (equimolar to Oxalate Solution)
[6] = 1.250 % Active (equimolar to Oxalate Solution)
[7] = 2.5200 % Active (equimolar to Oxalate Solution)
[8] = 7.56.00 % Active (equimolar to Oxalate Solution)

Δ SMH (change in surface microhardness) [1] | Slurry pH [2] | Compound | Tea Stain + FeCl3 (ΔL) [3, 5] | Tea Stain + FeCl3 (ΔL) [3, 6] | Tea Stain + FeCl3 (ΔL) [3, 7] | Tea Stain + FeCl3 (ΔL) [3, 8] | Tea Stain (ΔL) [4, 5] | Tea Stain (ΔL) [4, 6] | Tea Stain (ΔL) [4, 7] | Tea Stain (ΔL) [4, 8]
−175.68 | 2.19 | O=C(O)CC(O)(CC(=O)O)C(=O)O [1% Citric Acid, citric acid] |  |  |  |  |  |  |  | 
 |  | O=P([O-])(O)OP(=O)([O-])O.[Na+].[Na+] [Pyrophosphate Solution, Sodium acid pyrophosphate] | −0.97 | 0.02 | 0.77 | 2.88 | 5.16 | 5.97 | 7.88 | 9.85
